Experimental data published in US20220144853A1, “IMIDAZOLINE DERIVATIVES AS CXCR4 MODULATORS” (Université de Paris, priority 2019, published 2022).
Where a name gives a salt, the structure may show the parent alone.

Row | melting point | Compound
1 | > 250 °C | C1=C(CSC2=NCCCN2)N2CCCCN=C2S1 (as salt: hydrochloride) [Example 37, 3-(((1,4,5,6-tetrahydropyrimidin-2-yl)thio)methyl)-5,6,7,8-tetrahydrothiazolo[3,2-a][1,3]diazepine dihydrochloride]
2 | 225 to 231 °C | CC1(C)CN2C(CSC3=NCC4(CCCCC4)N3)=CSC2=N1 (as salt: hydrochloride) [Example 39, 3-(((1,3-diazaspiro[4.5]dec-2-en-2-yl)thio)methyl)-6,6-dimethyl-5,6-dihydroimidazo[2,1-b]thiazole dihydrochloride]
3 | 245 to 249 °C | CC1(C)CN2C(CSC3=NCC4CCCCC4N3)=CSC2=N1 (stereo not drawn) (as salt: hydrochloride) [Example 40, 6,6-dimethyl-3-(((1,4,4a,5,6,7,8,8a-octahydroquinazolin-2-yl)thio)methyl)-5,6-dihydroimidazo[2,1-b]thiazole dihydrochloride]
4 | 240 to 245 °C | CC1(C)CN=C(SCCc2cccc3ncccc23)N1 (as salt: hydrochloride) [Example 41, 5-(2-((5,5-dimethyl-4,5-dihydro-1H-imidazol-2-yl)thio)ethyl)quinoline dihydrochloride]
5 | 190 to 198 °C | CC1(C)CN=C(SCC2=CSC3=NC4(CCCCC4)CN23)N1 (as salt: hydrochloride) [Example 42, 3′-(((5,5-dimethyl-4,5-dihydro-1H-imidazol-2-yl)thio)methyl)-5′H-spiro[cyclohexane-1,6′-imidazo[2,1-b]thiazole] dihydrochloride]
6 | 241 to 245 °C | CC1(C)CN=C(SCC2=CSC3=NC4CCCCC4CN23)N1 (stereo not drawn) (as salt: hydrochloride) [Example 43, 3-(((5,5-dimethyl-4,5-dihydro-1H-imidazol-2-yl)thio)methyl)-5a,6,7,8,9,9a-hexahydro-5H-thiazolo[2,3-b]quinazoline dihydrochloride]
7 | 230 to 233 °C | C1=C(CSC2=N[C@@H]3CCCC[C@H]3N2)N2CCN=C2S1 (as salt: hydrochloride) [Example 44, 3-((((3aR,7aR)-3a,4,5,6,7,7a-hexahydro-1H-benzo[d]imidazol-2-yl)thio)methyl)-5,6-dihydroimidazo[2,1-b]thiazole dihydrochloride]
8 | > 250 °C | C1=C(CSC2=N[C@@H]3CCCC[C@H]3N2)N2CCCN=C2S1 (as salt: hydrochloride) [Example 45, 3-((((3aR,7aR)-3a,4,5,6,7,7a-hexahydro-1H-benzo[d]imidazol-2-yl)thio)methyl)-6,7-dihydro-5H-thiazolo[3,2-a]pyrimidine dihydrochloride]
9 | > 250 °C | C1=C(CSC2=N[C@@H]3CCCC[C@H]3N2)N2CCCCN=C2S1 (as salt: hydrochloride) [Example 46, 3-((((3aR,7aR)-3a,4,5,6,7,7a-hexahydro-1H-benzo[d]imidazol-2-yl)thio)methyl)-5,6,7,8-tetrahydrothiazolo[3,2-a][1,3]diazepine dihydrochloride]
10 | 50 to 53 °C | C1=C(CSC2=NCC(Cc3ccccc3)N2)N2CCCN=C2S1 (stereo not drawn) (as salt: hydrochloride) [Example 48, 3-(((5-benzyl-4,5-dihydro-1H-imidazol-2-yl)thio)methyl)-6,7-dihydro-5H-thiazolo[3,2-a]pyrimidine dihydrochloride]
11 | 234 to 237 °C | CC(C)C1CN=C(SCC2=CSC3=NC(C)(C)CN23)N1 (stereo not drawn) (as salt: hydrochloride) [Example 49, 3-(((5-isopropyl-4,5-dihydro-1H-imidazol-2-yl)thio)methyl)-6,6-dimethyl-5,6-dihydroimidazo[2,1-b]thiazole dihydrochloride]
12 | 245 to 247 °C | CC1(C)CN=C(SCC2=CSC3=NC(c4ccccc4)CN23)N1 (stereo not drawn) (as salt: hydrochloride) [Example 50, 3-(((5,5-dimethyl-4,5-dihydro-1H-imidazol-2-yl)thio)methyl)-6-phenyl-5,6-dihydroimidazo[2,1-b]thiazole dihydrochloride]
